From PubChem BioAssay AID2060487 (Molecular Pharmacology Branch, DTP, NCI, 2025)
pIC50: −log10 of the molar value.

Test system: 997537-175-T-J1-PDC complex spheroid viability
Assay: Anticancer human tumor 997537-175-T-J1-PDC patient-derived colon adenocarcinoma cell line growth inhibition [GQUAD]
Conditions: for pIC50: curve of first compound; for viability, T/C: stronger effect = lower value
Method in brief: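 Multi-cell-type spheroids of tumor cells with HUVEC and mesenchymal stem cells, treated with drug combinations. Concentrations descend in half-log steps from near clinical Cmax, or from 10 microM where Cmax is unknown; viability read-out.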

[1] = second compound 0.0316 µM, first compound 0.0316 µM
[2] = second compound 0.0316 µM, first compound 0.1 µM
[3] = second compound 0.0316 µM, first compound 0.316 µM
[4] = second compound 0.0316 µM, first compound 1 µM
[5] = second compound 0.0316 µM, first compound 3.16 µM
[6] = second compound 0.0316 µM, first compound 10 µM
[7] = second compound 0.1 µM, first compound 0.0316 µM
[8] = second compound 0.1 µM, first compound 0.1 µM
[9] = second compound 0.1 µM, first compound 0.316 µM
[10] = second compound 0.1 µM, first compound 1 µM
[11] = second compound 0.1 µM, first compound 3.16 µM
[12] = second compound 0.1 µM, first compound 10 µM
[13] = second compound 0.316 µM, first compound 0.0316 µM
[14] = second compound 0.316 µM, first compound 0.1 µM
[15] = second compound 0.316 µM, first compound 0.316 µM
[16] = second compound 0.316 µM, first compound 1 µM
[17] = second compound 0.316 µM, first compound 3.16 µM
[18] = second compound 0.316 µM, first compound 10 µM
[19] = second compound 1 µM, first compound 0.0316 µM
[20] = second compound 1 µM, first compound 0.1 µM
[21] = second compound 1 µM, first compound 0.316 µM
[22] = second compound 1 µM, first compound 1 µM
[23] = second compound 1 µM, first compound 3.16 µM
[24] = second compound 1 µM, first compound 10 µM
[25] = second compound 3.16 µM, first compound 0.0316 µM
[26] = second compound 3.16 µM, first compound 0.1 µM
[27] = second compound 3.16 µM, first compound 0.316 µM
[28] = second compound 3.16 µM, first compound 1 µM
[29] = second compound 3.16 µM, first compound 3.16 µM
[30] = second compound 3.16 µM, first compound 10 µM
[31] = second compound 10 µM, first compound 0.0316 µM
[32] = second compound 10 µM, first compound 0.1 µM
[33] = second compound 10 µM, first compound 0.316 µM
[34] = second compound 10 µM, first compound 1 µM
[35] = second compound 10 µM, first compound 3.16 µM
[36] = second compound 10 µM, first compound 10 µM
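Also: spheroids exposed to the agents for 7 days.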
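For viability, T/C in this document: 100% = DMSO vehicle control viability.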

`COc1ccc([C@@H](O)c2cc(-c3ncnc4cc(N5CCOCC5)ccc34)c(F)cc2Cl)nn1` + Cc1cnc(CNC(=O)c2c(=O)c3ccc(N4CCCN(C)CC4)nc3n3c2sc2ccccc23)cn1 gave a pIC50 (second compound 0.0316 µM) of less than 5.00, a pIC50 (second compound 0.1 µM) of less than 5.00 and a pIC50 (second compound 0.316 µM) of less than 5.00. It also gave a pIC50 (second compound 1 µM) of 5.01, a pIC50 (second compound 3.16 µM) of less than 5.00 and a pIC50 (second compound 10 µM) of less than 5.00. For the same molecule, the viability, T/C [1] was 102%, the viability, T/C [2] was 93.6% and the viability, T/C [3] was 100%. The viability, T/C [4] was 63.3%, the viability, T/C [5] was 81.1% and the viability, T/C [6] was 63.9%. It also gave a viability, T/C [7] of 97.5%, a viability, T/C [8] of 94.7% and a viability, T/C [9] of 73.9%. The viability, T/C [10] was 84.7%, the viability, T/C [11] was 77.2% and the viability, T/C [12] was 86.9%. The viability, T/C [13] was 87.3%, the viability, T/C [14] was 106% and the viability, T/C [15] was 107%. The viability, T/C [16] was 94.8%, the viability, T/C [17] was 113% and the viability, T/C [18] was 65.2%. For the same molecule, the viability, T/C [19] was 82.3%, the viability, T/C [20] was 87.5% and the viability, T/C [21] was 89.3%. The viability, T/C [22] was 87.8%, the viability, T/C [23] was 98.1% and the viability, T/C [24] was 49.5%. It also gave a viability, T/C [25] of 81.7%, a viability, T/C [26] of 88.8% and a viability, T/C [27] of 98.1%. It also gave a viability, T/C [28] of 107%, a viability, T/C [29] of 98.2% and a viability, T/C [30] of 71.2%. It also gave a viability, T/C [31] of 85.5%, a viability, T/C [32] of 75.9% and a viability, T/C [33] of 86.3%. For the same molecule, the viability, T/C [34] was 117%, the viability, T/C [35] was 86.9% and the viability, T/C [36] was 72.8%.

`C#Cc1c(F)ccc2cc(O)cc(-c3ncc4c(N5CC6CCC(C5)N6)nc(OCC56CCCN5CC(F)C6)nc4c3F)c12` (stereo unspecified) + Cc1[nH]c2ccc(F)cc2c1-c1nc2c3cccnc3c3ncccc3c2[nH]1 was tested, and the pIC50 (second compound 0.0316 µM) was 5.73, the pIC50 (second compound 0.1 µM) was 5.72 and the pIC50 (second compound 0.316 µM) was 5.74. The pIC50 (second compound 1 µM) was 5.89, the pIC50 (second compound 3.16 µM) was 6.25 and the pIC50 (second compound 10 µM) was 6.34. The viability, T/C [1] was 87.5%, the viability, T/C [2] was 90.5% and the viability, T/C [3] was 97%. It also gave a viability, T/C [4] of 71.1%, a viability, T/C [5] of 29.3% and a viability, T/C [6] of 35.4%. The viability, T/C [7] was 98.8%, the viability, T/C [8] was 103% and the viability, T/C [9] was 99.6%. The viability, T/C [10] was 74.2%, the viability, T/C [11] was 30.9% and the viability, T/C [12] was 26.6%. For the same molecule, the viability, T/C [13] was 91.6%, the viability, T/C [14] was 87.7% and the viability, T/C [15] was 85.4%. It also gave a viability, T/C [16] of 63.3%, a viability, T/C [17] of 35.4% and a viability, T/C [18] of 41%. The viability, T/C [19] was 95.9%, the viability, T/C [20] was 88.3% and the viability, T/C [21] was 79.6%. For the same molecule, the viability, T/C [22] was 56.9%, the viability, T/C [23] was 29.5% and the viability, T/C [24] was 38.2%. For the same molecule, the viability, T/C [25] was 89.4%, the viability, T/C [26] was 73.7% and the viability, T/C [27] was 62%. It also gave a viability, T/C [28] of 41%, a viability, T/C [29] of 21.5% and a viability, T/C [30] of 15.2%. The viability, T/C [31] was 70.7%, the viability, T/C [32] was 74.1% and the viability, T/C [33] was 60.6%. It also gave a viability, T/C [34] of 26.9%, a viability, T/C [35] of 10.2% and a viability, T/C [36] of 11.8%.

In the case of `C=CCn1c(=O)c2cnc(Nc3ccc(N4CCN(C)CC4)cc3)nc2n1-c1cccc(C(C)(C)O)n1` + Cc1cnc(CNC(=O)c2c(=O)c3ccc(N4CCCN(C)CC4)nc3n3c2sc2ccccc23)cn1, the pIC50 (second compound 0.0316 µM) was 5.73, the pIC50 (second compound 0.1 µM) was 5.56 and the pIC50 (second compound 0.316 µM) was 5.59. For the same molecule, the pIC50 (second compound 1 µM) was 5.12, the pIC50 (second compound 3.16 µM) was less than 5.00 and the pIC50 (second compound 10 µM) was 5.07. The viability, T/C [1] was 105%, the viability, T/C [2] was 76.5% and the viability, T/C [3] was 99%. The viability, T/C [4] was 70.5%, the viability, T/C [5] was 32.8% and the viability, T/C [6] was 20.4%. For the same molecule, the viability, T/C [7] was 105%, the viability, T/C [8] was 104% and the viability, T/C [9] was 98.3%. The viability, T/C [10] was 71.2%, the viability, T/C [11] was 48.6% and the viability, T/C [12] was 30.4%. The viability, T/C [13] was 89%, the viability, T/C [14] was 94.2% and the viability, T/C [15] was 91.3%. It also gave a viability, T/C [16] of 74%, a viability, T/C [17] of 44.8% and a viability, T/C [18] of 38.1%. It also gave a viability, T/C [19] of 80.5%, a viability, T/C [20] of 99.8% and a viability, T/C [21] of 112%. It also gave a viability, T/C [22] of 61.1%, a viability, T/C [23] of 76% and a viability, T/C [24] of 43.2%. For the same molecule, the viability, T/C [25] was 63.1%, the viability, T/C [26] was 98.4% and the viability, T/C [27] was 96%. The viability, T/C [28] was 107%, the viability, T/C [29] was 75.2% and the viability, T/C [30] was 50.6%. For the same molecule, the viability, T/C [31] was 73.8%, the viability, T/C [32] was 99.3% and the viability, T/C [33] was 87.2%. The viability, T/C [34] was 87%, the viability, T/C [35] was 79.8% and the viability, T/C [36] was 44.8%.
